Results reported in US9365583B2, “Substituted pyrazoles and uses thereof” (Genentech, Inc., priority 2013, dated 2016).

What follows are compounds tested against T1, N-terminally GST-tagged DLK (catalytic domain amino acid 1-520) (Homo sapiens, UniProt Q12852) (assay: DLK TR-FRET inhibition assay). Conditions: 5 nM GST-DLK, 40 nM HIS-MKK4 K131M substrate, 30 μM ATP, 60 minutes at ambient temperature.
T1 construct: N-terminally GST-tagged DLK (catalytic domain amino acid 1-520); purchased Carna Bioscience
T1 sequence (Q12852 1-520): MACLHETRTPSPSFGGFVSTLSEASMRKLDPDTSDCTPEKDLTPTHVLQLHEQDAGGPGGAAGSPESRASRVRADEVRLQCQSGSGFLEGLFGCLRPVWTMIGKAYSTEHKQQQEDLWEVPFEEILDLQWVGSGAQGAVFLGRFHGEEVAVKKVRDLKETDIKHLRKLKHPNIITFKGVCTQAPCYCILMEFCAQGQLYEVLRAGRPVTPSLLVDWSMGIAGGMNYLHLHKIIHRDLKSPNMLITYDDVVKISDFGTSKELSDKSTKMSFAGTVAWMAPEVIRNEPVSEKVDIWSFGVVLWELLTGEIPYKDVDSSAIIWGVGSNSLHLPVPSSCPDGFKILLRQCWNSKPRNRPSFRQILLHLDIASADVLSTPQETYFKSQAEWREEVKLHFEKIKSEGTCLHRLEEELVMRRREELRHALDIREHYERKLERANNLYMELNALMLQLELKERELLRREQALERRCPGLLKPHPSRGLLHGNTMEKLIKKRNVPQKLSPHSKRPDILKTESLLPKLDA
Format: biochemical
Procedure, shortened: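 Phosphorylated MKK4 was quantified by TR-FRET (Eu-labelled anti-phospho-MKK4, D2 anti-HIS; 3 h, 665 and 615 nm emission) after EDTA quench. Reactions held 5 nM GST-tagged DLK catalytic domain (1-520), 40 nM HIS-MKK4 K131M substrate, 30 μM ATP and compound (3-fold series from 20 uM), 60 min, room temperature, pH 7.5.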

Point of comparison: CC(C)n1nc(-c2cnc(N)c(C(F)(F)F)c2)cc1[C@H]1[C@@H]2C[C@H](N3CCN[C@@H](C)C3)C[C@@H]21 [compound 234, 5-(1-isopropyl-5-((1R,3r,5S,6S)-3-((S)-3-methylpiperazin-1-yl)bicyclo[3.1.0]hexan-6-yl)-1H-pyrazol-3-yl)-3-(trifluoromethyl) pyridin-2-amine], Ki 4.9 nM. Against it:
- CC(C)n1nc(-c2cnc(N)c(OC(F)F)c2)cc1[C@H]1[C@@H]2C[C@@H](N3CC4(CCCO4)C3)C[C@@H]21 [compound 223, 5-(5-((1R,3s,5S,6r)-3-(5-oxa-2-azaspiro[3.4]octan-2-yl)bicyclo [3.1.0]hexan-6-yl)-1-isopropyl-1H-pyrazol-3-yl)-3-(difluoro-methoxy)pyridin-2-amine] — 1.9-fold lower, 2.6 nM
- CC(C)n1nc(-c2cnc(N)c(OC(F)F)c2)cc1[C@H]1[C@@H]2C[C@H](N3CCN4CCCC4C3)C[C@@H]21 (stereo partly drawn) [compound 260, 3-(difluoromethoxy)-5-(5-((1R,3r,5S,6r)-3-(hexahydropyrrolo [1,2-a]pyrazin-2(1H)-yl)bicyclo [3.1.0]hexan-6-yl)-1-isopropyl-1H-pyrazol-3-yl)pyridin-2-amine] — 12-fold lower, 0.4 nM
- CC(C)n1nc(-c2cnc(N)c(OC(F)F)c2)cc1[C@H]1[C@@H]2C[C@H](N3C[C@@H]4C[C@H]3CN4C)C[C@@H]21 [compound 202, 3-(difluoromethoxy)-5-(1-isopropyl-5-((1R,3r,5S,6S)-3-((1S,4S)-5-methyl-2,5-diazabicyclo[2.2.1]heptan-2-yl)bicyclo[3.1.0]hexan-6-yl)-1H-pyrazol-3-yl) pyridin-2-amine] — 4.1-fold lower, 1.2 nM
- CC(C)n1nc(-c2cnc(N)c(OC(F)(F)F)c2)cc1[C@H]1[C@@H]2C[C@@H](N(C)CC3COC3)C[C@@H]21 [compound 18, 5-(1-isopropyl-5-((1R,3s,5S,6r)-3-(methyl(oxetan-3-ylmethyl)amino)bicyclo[3.1.0]hexan-6-yl)-1H-pyrazol-3-yl)-3-(trifluoromethoxy) pyridin-2-amine] — within 1.5-fold, 3.81 nM
- CC(C)n1nc(-c2cnc(N)c(OC(F)(F)F)c2)cc1[C@H]1[C@@H]2C[C@@H](N3CCOC[C@H]3C)C[C@@H]21 [compound 13, 5-(1-isopropyl-5-((1R,3s,5S,6R)-3-((R)-3-mcthylmorpholino)bicyclo[3.1.0]hexan-6-yl)-1H-pyrazol-3-yl)-3-(trifluoromethoxy) pyridin-2-amine] — 2.6-fold lower, 1.89 nM
- CC(C)n1nc(-c2cnc(N)c(OC(F)F)c2)cc1[C@H]1[C@@H]2C[C@@H](N3CCOC[C@@H]3C)C[C@@H]21 [compound 79, 3-(difluoromethoxy)-5-(1-isopropyl-5-((1R,3s,5S,6S)-3-((S)-3-methylmorpholino)bicyclo[3.1.0]hexan-6-yl)-1H-pyrazol-3-yl) pyridin-2-amine] — 4.5-fold lower, 1.1 nM
- CC(C)n1nc(-c2cnc(N)c(C(=O)N3CCCC3)c2)cc1[C@H]1[C@@H]2C[C@@H](N3CC(F)C3)C[C@@H]21 [compound 106, (2-amino-5-(5-((1R,3s,5S,6r)-3-(3-fluoroazetidin-1-yl)bicyclo [3.1.0]hexan-6-yl)-1-isopropyl-1H-pyrazol-3-yl)pyridin-3-yl) (pyrrolidin-1-yl)methanone] — higher, > 321 nM
- CC(C)n1nc(-c2cnc(N)c(C(F)(F)F)c2)cc1[C@H]1[C@@H]2C[C@@H](N)C[C@@H]21 [compound 276, 5-(5-((1R,3s,5S,6r)-3-aminobicyclo [3.1.0]hexan-6-yl)-1-isopropyl-1H-pyrazol-3-yl)-3-(trifluoro-methyl)pyridin-2-amine] — 2.7-fold lower, 1.8 nM
- CC(C)n1nc(-c2cnc(N)c(C(F)(F)F)c2)cc1[C@H]1[C@@H]2C[C@@H](N3CCCOCC3)C[C@@H]21 [compound 102, 5-(5-((1R,3s,5S,6r)-3-(1,4-oxazepan-4-yl)bicyclo[3.1.0]hexan-6-yl)-1-isopropyl-1H-pyrazol-3-yl)-3-(trifluoromethyl)pyridin-2-amine] — 6.2-fold lower, 0.79 nM
- CC(C)n1nc(-c2cnc(N)c(C(F)(F)F)c2)cc1[C@H]1[C@@H]2C[C@@H](N3CC4(CCCO4)C3)C[C@@H]21 [compound 222, 5-(5-((1R,3s,5S,6r)-3-(5-oxa-2-azaspiro[3.4]octan-2-yl)bicyclo [3.1.0]hexan-6-yl)-1-isopropyl-1H-pyrazol-3-yl)-3-(trifluoromethyl) pyridin-2-amine] — 1.8-fold lower, 2.7 nM
- CC(C)n1nc(-c2cnc(N)c(C(F)(F)F)c2)cc1[C@@H]1[C@H]2CC[C@H](O)[C@H]21 (single isomer, unassigned) [compound 142, 6-(3-(6-amino-5-trifluoromethylpyridin-3-yl)-1-isopropyl-1H-pyrazol-5-yl)bicyclo[3.1.0]hexan-2-ol] — 13-fold higher, 62.2 nM
- CC(C)n1nc(-c2cnc(N)c(C(F)(F)F)c2)cc1[C@H]1[C@@H]2C[C@@H](OC3COC3)C[C@@H]21 [compound 294, 5-(1-isopropyl-5-((1R,3s,5S,6r)-3-(oxetan-3-yloxy)bicyclo[3.1.0]hexan-6-yl)-1H-pyrazol-3-yl)-3-(trifluoromethyl)pyridin-2-amine] — 1.8-fold higher, 8.9 nM
- CC(C)n1nc(-c2cnc(N)c(C(F)(F)F)c2)cc1[C@H]1[C@@H]2CC(C#N)C[C@@H]21 (single isomer, unassigned) [compound 190] — within 1.5-fold, 4.8 nM
- CC(C)n1nc(-c2cnc(N)c(OC(F)F)c2)cc1[C@H]1[C@@H]2C[C@@H](NCC(F)(F)F)C[C@@H]21 [compound 121, 3-(difluoromethoxy)-5-(1-isopropyl-5-((1R,3s,5S,6r)-3-((2,2,2-trifluoroethyl)amino)bicyclo [3.1.0]hexan-6-yl)-1H-pyrazol-3-yl) pyridin-2-amine] — within 1.5-fold, 6.68 nM
- CC(C)n1nc(-c2cnc(N)c(OC(F)(F)F)c2)cc1[C@H]1[C@@H]2C[C@H](N3C[C@@H]4C[C@H]3CO4)C[C@@H]21 [compound 71, 5-(5-((1R,3r,5S,6S)-3-((1S,4S)-2-oxa-5-azabicyclo[2.2.1]heptan-5-yl)bicyclo[3.1.0]hexan-6-yl)-1-isopropyl-1H-pyrazol-3-yl)-3-(trifluoromethoxy)pyridin-2-amine] — within 1.5-fold, 3.62 nM
- CC(C)n1nc(-c2cnc(N)c(C(F)(F)F)c2)cc1[C@H]1[C@@H]2C[C@@H](N3CCCC3=O)C[C@@H]21 [compound 44, 1-((1R,3s,5S,6r)-6-(3-(6-amino-5-(trifluoromethyl)pyridin-3-yl)-1-isopropyl-1H-pyrazol-5-yl)bicyclo[3.1.0]hexan-3-yl)pyrrolidin-2-one] — 1.7-fold higher, 8.2 nM
- COC1CN([C@H]2C[C@@H]3[C@H](C2)[C@H]3c2cc(-c3cnc(N)c(OC(F)F)c3)nn2C(C)C)C1 [compound 61, 3-(difluoromethoxy)-5-(1-isopropyl-5-((1R,3r,5S,6r)-3-(3-methoxy-azetidin-1-yl)bicyclo[3.1.0]hexan-6-yl)-1H-pyrazol-3-yl) pyridin-2-amine] — 1.6-fold lower, 3.05 nM
- CC(C)n1nc(-c2cnc(N)c(C(F)(F)F)c2)cc1[C@H]1[C@@H]2C[C@@H](N3CC4(COC4)C3)C[C@@H]21 [compound 51, 5-(5-((1R,3s,5S,6r)-3-(2-oxa-6-azaspiro[3.3]heptan-6-yl)bicyclo [3.1.0]hexan-6-yl)-1-isopropyl-1H-pyrazol-3-yl)-3-(trifluoro-methyl)pyridin-2-amine] — within 1.5-fold, 3.55 nM
- CC(C)n1nc(-c2cnc(N)c(OC(F)F)c2)cc1[C@H]1[C@@H]2C[C@@H](N3CCO[C@H](C)C3)C[C@@H]21 [compound 74, 3-(difluoromethoxy)-5-(1-isopropyl-5-((1R,3s,5S,6R)-3-((R)-2-methylmorpholino)bicyclo[3.1.0]hexan-6-yl)-1H-pyrazol-3-yl) pyridin-2-amine] — within 1.5-fold, 3.75 nM
- CC(C)n1nc(-c2cnc(N)c(C(F)(F)F)c2)cc1[C@H]1[C@@H]2C[C@H](N3CCCC3=O)C[C@@H]21 [compound 35, 1-((1R,3r,5S,6r)-6-(3-(6-amino-5-(trifluoromethyl)pyridin-3-yl)-1-isopropyl-1H-pyrazol-5-yl)bicyclo[3.1.0]hexan-3-yl)pyrrolidin-2-one] — 1.6-fold lower, 3 nM
- CC(C)n1nc(-c2cnc(N)c(OC(F)F)c2)cc1[C@H]1[C@@H]2C[C@H](N3CC[C@H](F)C3)C[C@@H]21 [compound 285, 3-(difluoromethoxy)-5-(5-((1R,3r,5S,6S)-3-((S)-3-fluoropyrrolidin-1-yl)bicyclo[3.1.0]hexan-6-yl)-1-isopropyl-1H-pyrazol-3-yl) pyridin-2-amine] — within 1.5-fold, 4.3 nM
- CC(C)n1nc(-c2cnc(N)c(C(F)(F)F)c2)cc1[C@@H]1[C@H]2CC[C@H](O)[C@H]21 (single isomer, unassigned) [compound 143, 6-(3-(6-amino-5-trifluoromethylpyridin-3-yl)-1-isopropyl-1H-pyrazol-5-yl)bicyclo[3.1.0]hexan-2-ol] — 6.5-fold higher, 31.9 nM
- COC1CCN([C@H]2C[C@@H]3[C@H](C2)[C@H]3c2cc(-c3cnc(N)c(C(F)(F)F)c3)nn2C(C)C)CC1 [compound 251, 5-(1-isopropyl-5-((1R,3r,5S,6r)-3-(4-methoxypiperidin-1-yl)bicyclo[3.1.0]hexan-6-yl)-1H-pyrazol-3-yl)-3-(trifluoromethyl) pyridin-2-amine] — 1.8-fold lower, 2.7 nM
